The results in this text go back to patent publication US7427686B2, “(3R, 4R)-trans-3, 4-diarylchroman derivatives and a method for the prevention and/or treatment of estrogen dependent diseases” (Counsel of Scientific and Industrial Research, priority 2003, dated 2008).

Test [1] relates to immature ovariectomized rats. Briefly: Estrogen agonistic activity (uterine weight and uterine morphometry). The test is classed as in vivo, rat. Particulars: 0.05 mg/kg daily. On the procedure:
Twenty-one-day-old immature female rats are bilaterally ovariectomized under light ether anaesthesia and, after post-operative rest for 7 days, are randomized into different treatment groups. Each rat receives the compound of the invention once daily for 3 consecutive days on days 28-30 of age. A separate group of animals receiving only the vehicle for similar duration serves as control. At autopsy 24 h after the last treatment on day 31 of age, vaginal smear of each rat is taken and uterus is carefully excised, gently blotted, weighed and fixed for histology and histomorphometry using image analysis. Premature opening of vagina, cornification of vaginal epithelium, increase in uterine fresh weight, total uterine and endometrial area and uterine luminal epithelial cell height are taken as parameters for evaluation of estrogen agonistic activity in comparison to rats of vehicle control group.
For image analysis in estrogen agonistic activity evaluation studies, paraffin sections (6 μm thick) of the uterus stained with haematoxylin and eosin were analysed microscopically. To determine changes in uterine tissue components, areas of whole uterus and endometrium and the thickness of uterine epithelium were measured using a computer-image analysis system (BioVis, Expert Vision, India). Briefly, microscopic images of uterus acquired through a CCD camera were loaded in to the image analysis program and spatially calibrated against a stage micrometer image taken at the same magnification. Using thresholding and line tools, the regions for measurements were selected and the area (mm^2) of whole uterine transection excluding the luminal space, the area (mm^2) of the endometrium only, and the thickness (μm) of luminal epithelial lining were measured. Luminal epithelial thickness data was the Average of measurements made at 6 randomly selected sites are taken as parameters for evaluation.

The test system of test [2] is adult female rats. Briefly: Post-coital antifertility activity. The test is classed as in vivo, rat. To be noted: oral. How it is done: Adult female rats are caged overnight with coeval males of proven fertility and their vaginal smears are checked on the following morning. The day of presence of spermatozoa in the vaginal smear is taken as day 1 of pregnancy. […] Animals of all the groups are autopsied on day 10 post-coitum and number and status of corpora lutea and implantation sites in each rat are recorded. The compounds of the present invention are considered active if there is complete absence of implantations in the uterus of all rats, in comparison to presence of normal implantations in the uterus of rats of vehicle control group.

Test [3] concerns immature ovariectomized rats. Briefly: Estrogen antagonistic activity (EE induced uterine weight gain). The test is classed as in vivo, rat. To be noted: 0.05 mg/kg daily with 0.02 mg/kg 17-alfa-ethynylestradiol, 3 days. How it is done: Twenty-one-day-old immature female rats are bilaterally ovariectomized under light ether anaesthesia and after post-operative rest for 7 days, are randomized into different treatment groups. Each rat receives the compounds of the invention and 0.02 mg/kg dose of 17-alfa-ethynylestradiol in 10% ethanol-distilled water once daily for 3 consecutive days on days 28-30 of age. A separate group of animals-receiving only 17-alfa-ethynylestradiol (0.02 mg/kg) in 10% ethanol-distilled water for similar duration are used for comparison. At autopsy on day 31 of age, vaginal smear of each rat is taken and uterus is carefully excised, gently blotted, weighed and fixed for histology and histomorphometry using image analysis. Inhibition in 17-alfa-ethynylestradiol-induced premature opening of vagina, cornification of vaginal epithelium, increase in uterine fresh weight, total uterine and endometrial area and uterine luminal epithelial cell height are taken as parameters for evaluation of estrogen antagonistic activity.

In test [4] the target is T1, estrogen receptors (Rattus norvegicus, UniProt P06211).
T1 construct: Aliquot of uterine cytosol (200 μl; 2 uteri per ml) prepared in TEA buffer; from tissue; host or cells: uterine cytosol of immature estradiol-primed 20-21 day old rats
T1 sequence (P06211 1-600): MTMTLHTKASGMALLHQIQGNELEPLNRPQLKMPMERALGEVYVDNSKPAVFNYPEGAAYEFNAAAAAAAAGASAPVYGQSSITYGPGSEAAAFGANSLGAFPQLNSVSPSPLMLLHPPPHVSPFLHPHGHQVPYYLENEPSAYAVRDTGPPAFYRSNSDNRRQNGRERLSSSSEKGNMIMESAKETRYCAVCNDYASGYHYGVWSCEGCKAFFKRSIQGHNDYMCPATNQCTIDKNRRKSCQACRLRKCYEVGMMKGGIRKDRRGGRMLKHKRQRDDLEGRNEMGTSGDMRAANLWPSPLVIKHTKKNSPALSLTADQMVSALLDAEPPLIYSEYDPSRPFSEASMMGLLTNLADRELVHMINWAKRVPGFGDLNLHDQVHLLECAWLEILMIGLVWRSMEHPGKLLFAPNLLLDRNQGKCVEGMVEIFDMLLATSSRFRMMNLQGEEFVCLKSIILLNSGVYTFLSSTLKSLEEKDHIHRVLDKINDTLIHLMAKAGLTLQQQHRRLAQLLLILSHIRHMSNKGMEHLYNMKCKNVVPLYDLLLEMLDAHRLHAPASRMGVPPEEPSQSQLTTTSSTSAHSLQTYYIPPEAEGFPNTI
Briefly: Relative binding affinity (RBA) to estrogen receptors, 3H-estradiol competition assay. Particulars: rat uterine cytosol, 3H-E2, 18 hrs at 4° C.; relative to 17-beta-estradiol = 100.

The structures appear in SMILES notation.

On to `COc1ccc2c(c1)OC(C)(C)[C@@H](c1ccccc1)[C@@H]2c1ccc(OC[C@@H](O)CN2CCCC2)cc1` (relative stereo) [Example number 8], for which the “Endometrium Epithelial cell height” value in test [1] is 17.25 μm. The “Endometrium Total area” value in test [1] was 0.35 mm^2. Also, in test [1], the “Uterus Total area” value was 0.67 mm^2. The “Percent increase in uterine weight (percent of OVX + vehicle treatment group)” value in test [1] (3 days) was found to be 53%. The “% Efficacy” value came to 100% in test [2] (0.05 mg/kg daily, days 1-5 post-coitum); 100% in test [2] (0.1 mg/kg daily, days 1-5 post-coitum); 100% in test [2] (0.5 mg/kg, day 1 post-coitum); 100% in test [2] (1 mg/kg, day 1 post-coitum). In test [3], the “Percent inhibition in EE induced uterine weight gain” value was 49%. Further, in test [4], the RBA turned out to be 6.6.
